US6365746B1, “Stable and water soluble bis Au(I) complexes and their synthesis” (Eastman Kodak Company, priority 1997, dated 2002)

Assays:
Format in all cases: physicochemical
[1] = Stability study of aqueous solution monitored by UV-visible spectroscopy
Method: Stability Study of Compound S. To a 1000 mL borosilicate volumetric flask was added 14.7 g of Compound S and water. An aliquot of the gold solution was placed into a quartz cuvette and the keeping characteristics of the solution were monitored using UV-visible spectroscopy over the course of 25 days. A compound, TTT, a known sensitizer having a mesoionic heterocycle was similarly monitored.

[2] = Stability in 0.025 N H2SO4 at room temperature (gold precipitation); settings: 200 mg in 600 mL 0.025 N H2SO4, room temperature, after two weeks (duration of the study)
Method: Stability of Compound S versus Compound TTT. Two different batches of Compound TTT and Compound S, each weighing 200 mg, were dissolved in 600 mL of a 0.025 N H2SO4. The solutions were allowed to stand at room temperature. One of the solutions containing Compound TTT had brownish colloidal gold precipitated within 5 days and the other batch had purplish gold specks after 7 days.

[3] = Solubility study in water (gravimetric, filtrate residue); settings: stirred in the dark 1 hr, filtered, duplicate
Method: Solubility Study of compound S.5 H2O. To a 10 mL borosilicate volumetric flask was added 0.25 g of Compound S and a stir bar. Water was added to the 10 mL mark and the suspension was stirred in the dark for 1 hr. The suspension was filtered through a 0.25 μm syringe filter and 3.00 mL of the filtrate was placed into a tared porcelain dish (dried by heating at 125° C. for 12 hours followed by cooling to ambient temperature in a CaCl2 desiccator). The sample was placed into a vacuum desiccator and subjected to vacuum for ca. 60 hours. Finally, the dish and residue were weighed and the mass of the residue was determined by difference.

Row | gold precipitate from the solution [2] | average solubility [3] [mg/mL] | Substance | Change in Absorbance @ 235 nm ([1]; day 1) | Change in Absorbance @ 235 nm ([1]; day 4) | Change in Absorbance @ 235 nm ([1]; day 8) | Change in Absorbance @ 235 nm ([1]; day 13) | Change in Absorbance @ 235 nm ([1]; day 20) | Change in Absorbance @ 235 nm ([1]; day 25)
1 | no gold precipitate | 33.6 | potassium bis(1-[3-(2-sulfonatobenzamido)phenyl]-5-mercaptotetrazole potassium salt) aurate(I) pentahydrate [Compound S] | 0 | 0.0013 | 0.0015 | 0.0058 | 0.0070 | 0.0064
2 |  |  | bis(1,4,5-trimethyl-1,2,4-triazolium-3-thiolate) gold (I) tetrafluoroborate [TTT, reference compound] | 0 | 0.0222 | 0.0653 | 0.0868 | 0.1108 | 0.1340
